From ChEMBL document CHEMBL6177991, “Discovery of P11-2: A Potent First-in-Class MNK1-Targeting PROTAC Degrader for the Treatment of Cancer” (J Med Chem, 2025)
Activity calls are given as the source filed them. The rule behind the calls is not given here.

Tests used:
MV4-11 [1] = assay: Anti-proliferative activity against human MV4-11 cells measured after 72 hrs by CCK8 assay; settings: MV4-11, 72 h
MDA-MB-231 = assay: Anti-proliferative activity against human MDA-MB-231 cells measured after 96 hrs by CCK8 assay; settings: MDA-MB-231, 96 h
MM1.S = assay: Anti-proliferative activity against human MM1.S cells measured after 120 hrs by CCK8 assay
MOLM-13 = assay: Anti-proliferative activity against human MOLM-13 cells measured after 72 hrs by CCK8 assay; settings: MOLM-13, 72 h
[2] = Toxicity in nude female NSG mouse xenografted with human MV4-11 cells assessed as change in body weight at 20 mg/kg, ip qd administrated for 16 days; assay type: organism-based; settings: in vivo, 384 h, time 16 day
[3] = target: MAP kinase-interacting serine/threonine-protein kinase 1 (Homo sapiens, UniProt Q9BUB5); assay: Inhibition of recombinant MNK1 (unknown origin) using TATKSGSTTKNR peptide as substrate preincubated for 5 mins followed by ATP addition and measured after 40 mins by ADP-Glo kinase assay
MAP kinase-interacting serine/threonine-protein kinase 1, sequence (Q9BUB5 whole entry): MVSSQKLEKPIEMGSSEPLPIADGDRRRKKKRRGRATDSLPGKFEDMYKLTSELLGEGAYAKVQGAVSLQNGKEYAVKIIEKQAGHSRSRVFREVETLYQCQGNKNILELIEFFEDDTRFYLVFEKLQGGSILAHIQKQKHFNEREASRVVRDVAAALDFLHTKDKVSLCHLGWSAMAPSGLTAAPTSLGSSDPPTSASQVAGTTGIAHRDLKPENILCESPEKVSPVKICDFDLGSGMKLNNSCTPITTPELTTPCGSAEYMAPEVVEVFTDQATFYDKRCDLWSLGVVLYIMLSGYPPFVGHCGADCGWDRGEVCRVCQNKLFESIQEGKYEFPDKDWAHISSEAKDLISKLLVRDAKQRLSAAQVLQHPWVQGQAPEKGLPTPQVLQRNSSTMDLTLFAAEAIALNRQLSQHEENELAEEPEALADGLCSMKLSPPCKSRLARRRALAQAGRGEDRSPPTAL

MV4-11 [4] = assay: Induction of apoptosis in human MV4-11 cells assessed as early apoptotic cells at 300 nM incubated for 24 hrs by Annexin V-FITC/PI dual staining based flow cytometric analysis (reference value: 3.42 %); assay type: functional
MV4-11 [5] = assay: Antitumor activity against human MV4-11 cells xenografted in nude female NSG mouse assessed as tumor growth inhibition at 20 mg/kg, ip qd administrated for 16 days by caliper method relative to control; assay type: functional; settings: MV4-11, 384 h, time 16 day, read-out: TGI
MV4-11 [6] = assay: Induction of apoptosis in human MV4-11 cells assessed as late apoptotic cells at 300 nM incubated for 24 hrs by Annexin V-FITC/PI dual staining based flow cytometric analysis (reference value: 1.48 %); assay type: functional
MV4-11 [7] = assay: Induction of apoptosis in human MV4-11 cells assessed as necrotic cells at 300 nM incubated for 24 hrs by Annexin V-FITC/PI dual staining based flow cytometric analysis (reference value: 0.16 %); assay type: functional
MV4-11 [8] = assay: Induction of MNK2 degradation in human MV4-11 cells at 300 to 1000 nM incubated for 24 hrs by immunoblot analysis; assay type: cell-based; settings: dose 300-1000 nM
MV4-11 [9] = assay: Induction of apoptosis in human MV4-11 cells assessed as viable cells at 300 nM incubated for 24 hrs by Annexin V-FITC/PI dual staining based flow cytometric analysis (reference value: 94.9 %); assay type: functional; settings: read-out: Activity

SMILES | IC50 (MV4-11 [1]) | also measured
O=C(CC(=O)N1CCC(C(=O)Nc2ncc(-c3ccccc3)s2)CC1)NCCOCC(=O)Nc1cccc2c1CN(C1CCC(=O)NC1=O)C2=O (stereo not drawn) | > 10 µM | 
O=C1CCC(N2Cc3c(NC(=O)CCc4ccc(OCCCC(=O)N5CCC(C(=O)Nc6ncc(-c7ccccc7)s6)CC5)cc4)cccc3C2=O)C(=O)N1 (stereo not drawn) | > 10 µM | 
O=C1CCC(N2Cc3c(NC(=O)CCCOc4ccc(CC(=O)N5CCC(C(=O)Nc6ncc(-c7ccccc7)s6)CC5)cc4)cccc3C2=O)C(=O)N1 (stereo not drawn) | 6.38 µM | 
O=C1CCC(N2C(=O)c3cc(F)c(N4CCN(C(=O)CC(=O)N5CCC(C(=O)Nc6ncc(-c7ccccc7)s6)CC5)CC4)cc3C2=O)C(=O)N1 (stereo not drawn) | > 10 µM | 
O=C(CCC(=O)N1CCC(C(=O)Nc2ncc(-c3ccccc3)s2)CC1)NCCCCCC(=O)Nc1cccc2c1CN(C1CCC(=O)NC1=O)C2=O (stereo not drawn) | > 10 µM | 
O=C1CCC(N2Cc3c(NC(=O)CCc4ccc(OCCCCC(=O)N5CCC(C(=O)Nc6ncc(-c7ccccc7)s6)CC5)cc4)cccc3C2=O)C(=O)N1 (stereo not drawn) | > 10 µM | 
O=C1CCC(N2Cc3c(NC(=O)CCCCOc4ccc(CCC(=O)N5CCC(C(=O)Nc6ncc(-c7ccccc7)s6)CC5)cc4)cccc3C2=O)C(=O)N1 (stereo not drawn) | 9.89 µM | 
O=C1CCC(N2C(=O)c3cc(F)c(N4CCN(C(=O)CCCCCN5CCC(C(=O)Nc6ncc(-c7ccccc7)s6)CC5)CC4)cc3C2=O)C(=O)N1 (stereo not drawn) | > 10 µM | 
O=C1CCC(N2Cc3c(NC(=O)CCCCOc4ccc(CC(=O)N5CCC(C(=O)Nc6ncc(-c7ccccc7)s6)CC5)cc4)cccc3C2=O)C(=O)N1 (stereo not drawn) | 1.44 µM | IC50 (MDA-MB-231): > 20 µM; IC50 (MM1.S): 2.43 µM; IC50 (MOLM-13): 9.52 µM
O=C1CCC(N2Cc3c(NC(=O)CCCCC(=O)N4CCC(C(=O)Nc5ncc(-c6ccccc6)s5)CC4)cccc3C2=O)C(=O)N1 (stereo not drawn) | 2.17 µM | 
CN1CCC(C(=O)Nc2ncc(-c3ccccc3)s2)CC1 | 3.32 µM | Activity [2]: Non-toxic; IC50 [3]: 0.387 µM; Activity (MV4-11 [4]): 9.59%; inhibition in vivo at 20 mg/kg (MV4-11 [5]): 28%; Activity (MV4-11 [6]): 3.75%; Activity (MV4-11 [7]): 0.49%; Activity (MV4-11 [8]): inactive; IC50 (MDA-MB-231): > 20 µM; IC50 (MM1.S): 5.32 µM; IC50 (MOLM-13): 12.1 µM; viability at 0.3 µM (MV4-11 [9]): 86.2%
O=C1CCC(N2C(=O)c3cc(F)c(N4CCN(C(=O)CCC(=O)N5CCC(C(=O)Nc6ncc(-c7ccccc7)s6)CC5)CC4)cc3C2=O)C(=O)N1 (stereo not drawn) | 5.13 µM | 
O=C1CCC(N2C(=O)c3cc(F)c(N4CCN(C(=O)CCCN5CCC(C(=O)Nc6ncc(-c7ccccc7)s6)CC5)CC4)cc3C2=O)C(=O)N1 (stereo not drawn) | 8.47 µM | 
O=C1CCC(N2C(=O)c3cc(F)c(N4CCN(C(=O)CCCCN5CCC(C(=O)Nc6ncc(-c7ccccc7)s6)CC5)CC4)cc3C2=O)C(=O)N1 (stereo not drawn) | 7.9 µM | 
O=C(CC(=O)N1CCC(C(=O)Nc2ncc(-c3ccccc3)s2)CC1)NCCCCCCCC(=O)Nc1cccc2c1CN(C1CCC(=O)NC1=O)C2=O (stereo not drawn) | 5.41 µM | 
O=C1CCC(N2Cc3c(NC(=O)CCCCCN4CCC(C(=O)Nc5ncc(-c6ccccc6)s5)CC4)cccc3C2=O)C(=O)N1 (stereo not drawn) | 0.9 µM | IC50 (MDA-MB-231): 12.2 µM; IC50 (MM1.S): 1.22 µM; IC50 (MOLM-13): 11.5 µM

SMILES | IC50 (MV4-11 [1]) | also measured
O=C1CCC(N2C(=O)c3cc(F)c(N4CCN(C(=O)CCCCCCC(=O)N5CCC(C(=O)Nc6ncc(-c7ccccc7)s6)CC5)CC4)cc3C2=O)C(=O)N1 (stereo not drawn) | 2.28 µM | IC50 (MDA-MB-231): > 20 µM; IC50 (MM1.S): 3.84 µM; IC50 (MOLM-13): 10 µM
O=C1CCC(N2Cc3c(NC(=O)CCCCCCCCC(=O)N4CCC(C(=O)Nc5ncc(-c6ccccc6)s5)CC4)cccc3C2=O)C(=O)N1 (stereo not drawn) | 5.21 µM | 
O=C(CC(=O)N1CCC(C(=O)Nc2ncc(-c3ccccc3)s2)CC1)NCCCCCCC(=O)Nc1cccc2c1CN(C1CCC(=O)NC1=O)C2=O (stereo not drawn) | 0.86 µM | IC50 (MDA-MB-231): 17.6 µM; IC50 (MM1.S): 1.91 µM; IC50 (MOLM-13): 6.96 µM
O=C1CCC(N2Cc3c(NC(=O)CCCCCCCC(=O)N4CCC(C(=O)Nc5ncc(-c6ccccc6)s5)CC4)cccc3C2=O)C(=O)N1 (stereo not drawn) | 4.59 µM | 
O=C(CC(=O)N1CCC(C(=O)Nc2ncc(-c3ccccc3)s2)CC1)NCCCCCC(=O)Nc1cccc2c1CN(C1CCC(=O)NC1=O)C2=O (stereo not drawn) | 7.1 µM | 
O=C1CCC(N2Cc3c(NC(=O)CCCCCCC(=O)N4CCC(C(=O)Nc5ncc(-c6ccccc6)s5)CC4)cccc3C2=O)C(=O)N1 (stereo not drawn) | 0.21 µM | IC50 (MDA-MB-231): 5.74 µM; IC50 (MM1.S): 0.41 µM; IC50 (MOLM-13): 1.95 µM
O=C1CCC(N2C(=O)c3cc(F)c(N4CCN(C(=O)CCCCC(=O)N5CCC(C(=O)Nc6ncc(-c7ccccc7)s6)CC5)CC4)cc3C2=O)C(=O)N1 (stereo not drawn) | > 10 µM | 
O=C1CCC(N2Cc3c(NC(=O)CCCCCCN4CCC(C(=O)Nc5ncc(-c6ccccc6)s5)CC4)cccc3C2=O)C(=O)N1 (stereo not drawn) | 4.89 µM | 
CN1C(=O)CCC(N2Cc3c(NC(=O)CCCCCC(=O)N4CCC(C(=O)Nc5ncc(-c6ccccc6)s5)CC4)cccc3C2=O)C1=O (stereo not drawn) | > 10 µM | 
O=C(CC(=O)N1CCC(C(=O)Nc2ncc(-c3ccccc3)s2)CC1)NCCCCC(=O)Nc1cccc2c1CN(C1CCC(=O)NC1=O)C2=O (stereo not drawn) | 6.17 µM | 
O=C1CCC(N2Cc3c(NC(=O)CCCCN4CCC(C(=O)Nc5ncc(-c6ccccc6)s5)CC4)cccc3C2=O)C(=O)N1 (stereo not drawn) | 3.36 µM | 
O=C1CCC(N2C(=O)c3cc(F)c(N4CCN(C(=O)CCCC(=O)N5CCC(C(=O)Nc6ncc(-c7ccccc7)s6)CC5)CC4)cc3C2=O)C(=O)N1 (stereo not drawn) | 8.98 µM | IC50 [3]: 0.64 µM
O=C1CCC(N2C(=O)c3cc(F)c(N4CCN(C(=O)CCCCCC(=O)N5CCC(C(=O)Nc6ncc(-c7ccccc7)s6)CC5)CC4)cc3C2=O)C(=O)N1 (stereo not drawn) | 4.08 µM | 
O=C1CCC(N2Cc3c(NC(=O)CCCOc4ccc(CCC(=O)N5CCC(C(=O)Nc6ncc(-c7ccccc7)s6)CC5)cc4)cccc3C2=O)C(=O)N1 (stereo not drawn) | 8.58 µM | 
O=C1CCC(N2Cc3c(NC(=O)CCCCCCCN4CCC(C(=O)Nc5ncc(-c6ccccc6)s5)CC4)cccc3C2=O)C(=O)N1 (stereo not drawn) | > 10 µM | 
